Legend:
[1] = tested on: fleas (Ctenocephalides felis); experiment: Study A: flea efficacy of Compound 1 spot-on formulations in dogs; type: in vivo
Protocol: An initial clinical study was conducted to test the efficacy of Compound 1 (3-cyano-1-(2-chloro-6-fluoro-4-trifluoromethylphenyl)-4-dichlorofluoromethylsulfinyl-5-methyl-1H-pyrazole) against ticks and fleas in various test formulations. Five test groups and an untreated control were evaluated. Each test group included six dogs. Compound was dissolved in a solvent or a combination of two or more solvents at 10% w/w. Test articles were formulated as topical spot-on solutions containing compound 1, 10% w/v in a solvent or a combination of solvents as described above. Dogs were infested with approximately 50 ticks (Rhipicephalus sanguineus) on days −1, 7, 14, 21, 28, 35 and 42. Dogs were also infested with approximately 100 fleas (Ctenocephalides felis) on days −1, 8, 15, 22, 29, 36, and 43. Treatment was applied by parting the hair and applying the formulation directly onto the skin on one spot at the midline of the neck, between the base of the skull and the shoulder blades. The dose rate of each of the topical solutions was 0.1 ml/kg (10 mg/kg) body weight. The efficacy of compound 1 in various formulations is shown Table 2 below.

[2] = tested on: fleas (Ctenocephalides felis); experiment: Study B: flea efficacy of Compound 1 spot-on formulations in dogs; type: in vivo
Excerpt: A separate clinical efficacy study in dogs was designed with an untreated control group and 5 test groups treated with compound 1. Each group had six dogs. Test articles were formulated as topical spot-on solutions containing compound 1, 10-20% w/v in a solvent or a combination of solvents as described above. Dogs were infested with approximately 50 ticks (Rhipicephalus sanguineus) on days −1, 7, 14, 21, 28, 35 and 42. Dogs were also infested with approximately 100 fleas (Ctenocephalides felis) on days −1, 8, 15, 22, 29, 36, and 43. Treatment was applied by parting the hair and applying the formulation directly onto the skin on one spot at the midline of the neck, between the base of the skull and the shoulder blades. […] […] It should be noted that Study A and Study B were conducted at different times and locations, and the results of each clinical study may differ from the other based on various environmental factors. Thus, the results of one clinical study should not be compared with those of another due to these factors.

Cc1c([S+]([O-])C(F)(Cl)Cl)c(C#N)nn1-c1c(F)cc(C(F)(F)F)cc1Cl (centres unmarked) [Compound 1, 3-cyano-1-(2-chloro-6-fluoro-4-trifluoromethylphenyl)-4-dichlorofluoromethylsulfinyl-5-methyl-1H-pyrazole]
% Efficacy against fleas ([1]; Day 2, Trt. Group 2: 10 mg/kg in Butyl acetate/octyl acetate): 99.6%
% Efficacy against fleas ([1]; Day 2, Trt. Group 3: 10 mg/kg in Diethylene glycol monoethyl ether (transcutol)/N-methyl-2-pyrrolidone): 96.0%
% Efficacy against fleas ([1]; Day 2, Trt. Group 4: 10 mg/kg in Dipropylene glycol monomethyl ether/butyl acetate): 100%
% Efficacy against fleas ([1]; Day 2, Trt. Group 5: 10 mg/kg in Diisopropyl adipate): 100%
% Efficacy against fleas ([1]; Day 2, Trt. Group 6: 10 mg/kg in Triacetin): 98.0%
% Efficacy against fleas ([1]; Day 9, Trt. Group 2: 10 mg/kg in Butyl acetate/octyl acetate): 100%
% Efficacy against fleas ([1]; Day 9, Trt. Group 3: 10 mg/kg in Diethylene glycol monoethyl ether (transcutol)/N-methyl-2-pyrrolidone): 100%
% Efficacy against fleas ([1]; Day 9, Trt. Group 4: 10 mg/kg in Dipropylene glycol monomethyl ether/butyl acetate): 100%
% Efficacy against fleas ([1]; Day 9, Trt. Group 5: 10 mg/kg in Diisopropyl adipate): 100%
% Efficacy against fleas ([1]; Day 9, Trt. Group 6: 10 mg/kg in Triacetin): 100%
% Efficacy against fleas ([1]; Day 16, Trt. Group 2: 10 mg/kg in Butyl acetate/octyl acetate): 100%
% Efficacy against fleas ([1]; Day 16, Trt. Group 3: 10 mg/kg in Diethylene glycol monoethyl ether (transcutol)/N-methyl-2-pyrrolidone): 99.8%
% Efficacy against fleas ([1]; Day 16, Trt. Group 4: 10 mg/kg in Dipropylene glycol monomethyl ether/butyl acetate): 100%
% Efficacy against fleas ([1]; Day 16, Trt. Group 5: 10 mg/kg in Diisopropyl adipate): 100%
% Efficacy against fleas ([1]; Day 16, Trt. Group 6: 10 mg/kg in Triacetin): 100%
% Efficacy against fleas ([1]; Day 23, Trt. Group 2: 10 mg/kg in Butyl acetate/octyl acetate): 99.4%
% Efficacy against fleas ([1]; Day 23, Trt. Group 3: 10 mg/kg in Diethylene glycol monoethyl ether (transcutol)/N-methyl-2-pyrrolidone): 98.8%
% Efficacy against fleas ([1]; Day 23, Trt. Group 4: 10 mg/kg in Dipropylene glycol monomethyl ether/butyl acetate): 99.5%
% Efficacy against fleas ([1]; Day 23, Trt. Group 5: 10 mg/kg in Diisopropyl adipate): 100%
% Efficacy against fleas ([1]; Day 23, Trt. Group 6: 10 mg/kg in Triacetin): 100%
% Efficacy against fleas ([1]; Day 30, Trt. Group 2: 10 mg/kg in Butyl acetate/octyl acetate): 94.5%
% Efficacy against fleas ([1]; Day 30, Trt. Group 3: 10 mg/kg in Diethylene glycol monoethyl ether (transcutol)/N-methyl-2-pyrrolidone): 91.4%
% Efficacy against fleas ([1]; Day 30, Trt. Group 4: 10 mg/kg in Dipropylene glycol monomethyl ether/butyl acetate): 83.2%
% Efficacy against fleas ([1]; Day 30, Trt. Group 5: 10 mg/kg in Diisopropyl adipate): 92.9%
% Efficacy against fleas ([1]; Day 30, Trt. Group 6: 10 mg/kg in Triacetin): 99.7%
% Efficacy against fleas ([1]; Day 37, Trt. Group 2: 10 mg/kg in Butyl acetate/octyl acetate): 80.4%
% Efficacy against fleas ([1]; Day 37, Trt. Group 3: 10 mg/kg in Diethylene glycol monoethyl ether (transcutol)/N-methyl-2-pyrrolidone): 85.3%
% Efficacy against fleas ([1]; Day 37, Trt. Group 4: 10 mg/kg in Dipropylene glycol monomethyl ether/butyl acetate): 76.5%
% Efficacy against fleas ([1]; Day 37, Trt. Group 5: 10 mg/kg in Diisopropyl adipate): 69.1%
% Efficacy against fleas ([1]; Day 37, Trt. Group 6: 10 mg/kg in Triacetin): 98.9%
% Efficacy against fleas ([1]; Day 44, Trt. Group 2: 10 mg/kg in Butyl acetate/octyl acetate): 46.9%
% Efficacy against fleas ([1]; Day 44, Trt. Group 3: 10 mg/kg in Diethylene glycol monoethyl ether (transcutol)/N-methyl-2-pyrrolidone): 38.9%
% Efficacy against fleas ([1]; Day 44, Trt. Group 4: 10 mg/kg in Dipropylene glycol monomethyl ether/butyl acetate): 31.1%
% Efficacy against fleas ([1]; Day 44, Trt. Group 5: 10 mg/kg in Diisopropyl adipate): 40.3%
% Efficacy against fleas ([1]; Day 44, Trt. Group 6: 10 mg/kg in Triacetin): 93.0%
% Efficacy against fleas ([2]; Day 2, Trt. Group 2: 0.1 ml/kg (10 mg/kg) in Triacetin): 100%
% Efficacy against fleas ([2]; Day 2, Trt. Group 3: 0.2 ml/kg (20 mg/kg) in Triacetin): 100%
% Efficacy against fleas ([2]; Day 2, Trt. Group 4: 10 mg/kg in Diisopropyl adipate): 100%
% Efficacy against fleas ([2]; Day 2, Trt. Group 5: 10 mg/kg in Diethylene glycol monoethyl ether (transcutol)): 100%
% Efficacy against fleas ([2]; Day 2, Trt. Group 6: 10 mg/kg in Triacetin/diisopropyl adipate): 100%
% Efficacy against fleas ([2]; Day 9, Trt. Group 2: 0.1 ml/kg (10 mg/kg) in Triacetin): 100%
% Efficacy against fleas ([2]; Day 9, Trt. Group 3: 0.2 ml/kg (20 mg/kg) in Triacetin): 100%
% Efficacy against fleas ([2]; Day 9, Trt. Group 4: 10 mg/kg in Diisopropyl adipate): 100%
% Efficacy against fleas ([2]; Day 9, Trt. Group 5: 10 mg/kg in Diethylene glycol monoethyl ether (transcutol)): 100%
% Efficacy against fleas ([2]; Day 9, Trt. Group 6: 10 mg/kg in Triacetin/diisopropyl adipate): 100%
% Efficacy against fleas ([2]; Day 16, Trt. Group 2: 0.1 ml/kg (10 mg/kg) in Triacetin): 100%
% Efficacy against fleas ([2]; Day 16, Trt. Group 3: 0.2 ml/kg (20 mg/kg) in Triacetin): 100%
% Efficacy against fleas ([2]; Day 16, Trt. Group 4: 10 mg/kg in Diisopropyl adipate): 100%
% Efficacy against fleas ([2]; Day 16, Trt. Group 5: 10 mg/kg in Diethylene glycol monoethyl ether (transcutol)): 100%
% Efficacy against fleas ([2]; Day 16, Trt. Group 6: 10 mg/kg in Triacetin/diisopropyl adipate): 100%
% Efficacy against fleas ([2]; Day 23, Trt. Group 2: 0.1 ml/kg (10 mg/kg) in Triacetin): 99.8%
% Efficacy against fleas ([2]; Day 23, Trt. Group 3: 0.2 ml/kg (20 mg/kg) in Triacetin): 99.8%
% Efficacy against fleas ([2]; Day 23, Trt. Group 4: 10 mg/kg in Diisopropyl adipate): 100%
% Efficacy against fleas ([2]; Day 23, Trt. Group 5: 10 mg/kg in Diethylene glycol monoethyl ether (transcutol)): 99.8%
% Efficacy against fleas ([2]; Day 23, Trt. Group 6: 10 mg/kg in Triacetin/diisopropyl adipate): 99.8%
% Efficacy against fleas ([2]; Day 30, Trt. Group 2: 0.1 ml/kg (10 mg/kg) in Triacetin): 99.7%
% Efficacy against fleas ([2]; Day 30, Trt. Group 3: 0.2 ml/kg (20 mg/kg) in Triacetin): 100%
% Efficacy against fleas ([2]; Day 30, Trt. Group 4: 10 mg/kg in Diisopropyl adipate): 100%
% Efficacy against fleas ([2]; Day 30, Trt. Group 5: 10 mg/kg in Diethylene glycol monoethyl ether (transcutol)): 100%
% Efficacy against fleas ([2]; Day 30, Trt. Group 6: 10 mg/kg in Triacetin/diisopropyl adipate): 100%
% Efficacy against fleas ([2]; Day 37, Trt. Group 2: 0.1 ml/kg (10 mg/kg) in Triacetin): 99.8%
% Efficacy against fleas ([2]; Day 37, Trt. Group 3: 0.2 ml/kg (20 mg/kg) in Triacetin): 100%
% Efficacy against fleas ([2]; Day 37, Trt. Group 4: 10 mg/kg in Diisopropyl adipate): 98.9%
% Efficacy against fleas ([2]; Day 37, Trt. Group 5: 10 mg/kg in Diethylene glycol monoethyl ether (transcutol)): 100%
% Efficacy against fleas ([2]; Day 37, Trt. Group 6: 10 mg/kg in Triacetin/diisopropyl adipate): 100%
% Efficacy against fleas ([2]; Day 44, Trt. Group 2: 0.1 ml/kg (10 mg/kg) in Triacetin): 100%
% Efficacy against fleas ([2]; Day 44, Trt. Group 3: 0.2 ml/kg (20 mg/kg) in Triacetin): 100%
% Efficacy against fleas ([2]; Day 44, Trt. Group 4: 10 mg/kg in Diisopropyl adipate): 99.6%
% Efficacy against fleas ([2]; Day 44, Trt. Group 5: 10 mg/kg in Diethylene glycol monoethyl ether (transcutol)): 100%
% Efficacy against fleas ([2]; Day 44, Trt. Group 6: 10 mg/kg in Triacetin/diisopropyl adipate): 100%
% Efficacy against fleas ([2]; Day 51, Trt. Group 2: 0.1 ml/kg (10 mg/kg) in Triacetin): 99.8%
% Efficacy against fleas ([2]; Day 51, Trt. Group 3: 0.2 ml/kg (20 mg/kg) in Triacetin): 99.7%
% Efficacy against fleas ([2]; Day 51, Trt. Group 4: 10 mg/kg in Diisopropyl adipate): 98.5%
% Efficacy against fleas ([2]; Day 51, Trt. Group 5: 10 mg/kg in Diethylene glycol monoethyl ether (transcutol)): 100%
% Efficacy against fleas ([2]; Day 51, Trt. Group 6: 10 mg/kg in Triacetin/diisopropyl adipate): 100%
% Efficacy against fleas ([2]; Day 58, Trt. Group 2: 0.1 ml/kg (10 mg/kg) in Triacetin): 99.6%
% Efficacy against fleas ([2]; Day 58, Trt. Group 3: 0.2 ml/kg (20 mg/kg) in Triacetin): 99.0%
% Efficacy against fleas ([2]; Day 58, Trt. Group 4: 10 mg/kg in Diisopropyl adipate): 96.7%
% Efficacy against fleas ([2]; Day 58, Trt. Group 5: 10 mg/kg in Diethylene glycol monoethyl ether (transcutol)): 100%
% Efficacy against fleas ([2]; Day 58, Trt. Group 6: 10 mg/kg in Triacetin/diisopropyl adipate): 98.8%
